Results taken from US11931365B2, “Use of PPAR-delta agonists in the treatment of disease” (Reneo Pharmaceuticals, Inc., priority 2022, dated 2024).

Tests used:
[1] = target: T1, hPPARα (Homo sapiens, UniProt Q07869); assay: PPAR receptor transactivation assay (UAS-bla Gal4, HEK293); format: cell-based; details: PPARα
T1 construct: expressed in transfected cells; host or cells: Jump-In GripTite HEK293
Method: (§1) Compound I was tested on all three human PPAR subtypes (hPPAR): hPPARα, hPPARγ, and hPPARδ in vitro assays testing for such activity.
(§2) Compound I was tested on all three human PPAR subtypes (hPPAR): hPPARα, hPPARγ, and hPPARδ. All assays were repeated at least three times for each subtype.
(§3) The genes of interest were synthesized and cloned into an appropriate Jump-In™ retargeting vector following the User Guide of the Jump-in™ T-REx™ HEK293 Retargeting Kit (ThermoFisher Catalog No A15008). For example, the vector will be used to transfect and retarget the Jump-In™ HEK293 GripTite™ parental cell line. Stable pools will be antibiotic-selected for about 21 days and tested for target gene expression by functional assay.
(§4) Jump-In™ GripTite™ HEK293 parental cells were plated at 60-80% confluency in a T-75 flask in growth medium without antibiotics and transfected with a 1:1 ratio of expression construct and R4 integrase expression construct (20 μg DNA total) using Lipofectamine® LTX (50 μL) and PLUS™ Reagent (20 μL). Following a 48 hours incubation, cells were selected with 600 μg/mL Geneticin® and 10 μg/mL Blasticidin for ˜21 days in growth medium.
(§5) Jump-In™ GripTite™ HEK293 rPPAR Alpha, Delta or Gamma UAS-bla-Gal4 cell pools were plated in a 384-well plate format (20,000 cells per well) in OptiMeM without FBS in replicates (n=4). Cells were allowed to adhere for 8 hours before addition of Compound I (1 mM top concentration, 3-fold dilutions, 10-point titration). After 16 hours, the cells were loaded with LiveBLAzer®, a fluorescent BLA substrate that gives a blue/green readout of expressing/non-expressing cells, respectively. The blue/green readout was measured on a fluorescent plate reader (Tecan Safire II).

[2] = target: T2, hPPARγ (Homo sapiens, UniProt P37231); assay: as above; format: cell-based
T2 construct: expressed in transfected cells; host or cells: Jump-In GripTite HEK293
Method: as §1, §2, §3, §4, §5

[3] = target: FXR (Homo sapiens, UniProt Q96RI1); assay: Nuclear receptor activity
[4] = target: LXRα (Homo sapiens, UniProt Q13133); assay: Nuclear receptor activity
[5] = target: LXRβ (Homo sapiens, UniProt P55055); assay: Nuclear receptor activity
[6] = test system: rat muscle cell lines; assay: Fatty acid oxidation in muscle cell lines; format: cell-based
[7] = test system: PPARδ regulated genes (CPT1b, PGC-1α); assay: In vivo expression of PPARδ regulated genes in muscle; details: mice muscle
[8] = test system: VLCAD; assay: VLCAD enzymatic activity in cultured fibroblasts from FAOD patients with VLCAD deficiency; format: cell-based, human; details: fibroblasts from symptomatic VLCAD deficient patients
[9] = test system: patients with primary mitochondrial myopathy; assay: Clinical trial for primary mitochondrial myopathy (PMM); format: in vivo, human
[10] = test system: healthy male volunteers, leg immobilization; assay: Phase 1 placebo-controlled study in healthy volunteers with single limb immobilization; format: in vivo, human; details: 100 mg twice daily for 28 days
Method: In a prior clinical trial in healthy volunteers, Compound I was administered at dose of 100 mg twice daily for 28 days in healthy volunteers during and after a single limb immobilization (see NCT01524406). The study was conducted to evaluate the impact of Compound I on the recovery of muscle atrophy from leg immobilization, and improvements in cross section area (CSA) and muscle strength parameters expected in patients treated with study drug compared to those given placebo.
This phase 1, randomized, parallel group, placebo-controlled study was conducted at 2 centers in the United States. Fifty participants were planned for enrollment, 25 per group; participants could be replaced upon sponsor approval.
Screening was conducted 28 days before study start; eligibility was reviewed again at prespecified times during the study. Ambulatory, non-smoking, healthy male volunteers 30 to 55 years of age with a Body Mass Index (BMI) from 18 to 30 kg/m2 were recruited for the study. Key exclusion criteria included abnormal laboratory values at screening, a recent history of body weight fluctuations, positive urine drug screens, drug dependency or illicit drug use, professional sport participation within 30 days of screening, donation of whole blood within 90 days of dosing, and donation of plasma within 30 days of dosing. Concomitant medications within 14 days of dosing were not allowed unless approved by the sponsor. Those who had enrolled in another clinical trial within 90 days or had previously received Compound II were not allowed to participate.
Participants were randomly assigned 1:1 to receive either Compound II (100 mg BID) or matching placebo for 28 days using a computer generated randomization schedule provided by the sponsor. The principal investigator, study center staff, and participants were blinded to treatment; the protocol was amended so that sponsor personnel were not blinded. This change was made to allow investigation of observations concerning adherence to the protocol, discussed further in the pharmacodynamic results. Compound II and placebo were provided as capsules identical in appearance, taken orally with 240 ml of water prior to meals. Study drug was administered at the study site on Days 1 (PM dose), 6 (AM dose), 13 (PM dose), and 14, 15, 16, 29 (AM doses). At all other times study drug was self-administered just before breakfast and dinner. Dates and times were recorded in a diary, with compliance determined from the diaries and capsule counts. Study drug supplies were packaged according to the randomization codes by a contract research organization. Each dispensed bottle was labeled with the randomization number. Individual capsules were re-dispensed from these bottles by the study site staff, maintaining the blind. The total study duration for each subject was 42 days. Participants stayed overnight from Day 1 and Days 13 to 16.
Standardized meals, beverages and snacks were provided during the domicile periods. On Day 1, participants were leg-immobilized using a knee brace with […] on the left leg to allow driving. Walking crutches were provided to prevent weight bearing on the immobilized leg. An accelerometer was issued at screening and was used to count the number of steps per day. Participants were to walk 4000 to 6000 steps each day for the duration of the leg immobilization period, and recorded accelerometer readings each evening before bedtime. The brace was removed on Day 14, and participants resumed normal physical activity gradually from Days 16 to 29. After stopping study drug on Day 29, participants were to resume regular daily activity gradually for another 2 weeks. Consumption of prescribed medications or over the counter products was prohibited from 14 days prior to dosing and throughout the study, with the exception of the treatment of an adverse event. Participants were not to consume alcohol or caffeine containing food and beverages 3 days before each study visit and domicile periods. […]

[11] = 100 mg once daily, 12 weeks, listed as Compound 1

T2 sequence (P37231 whole entry): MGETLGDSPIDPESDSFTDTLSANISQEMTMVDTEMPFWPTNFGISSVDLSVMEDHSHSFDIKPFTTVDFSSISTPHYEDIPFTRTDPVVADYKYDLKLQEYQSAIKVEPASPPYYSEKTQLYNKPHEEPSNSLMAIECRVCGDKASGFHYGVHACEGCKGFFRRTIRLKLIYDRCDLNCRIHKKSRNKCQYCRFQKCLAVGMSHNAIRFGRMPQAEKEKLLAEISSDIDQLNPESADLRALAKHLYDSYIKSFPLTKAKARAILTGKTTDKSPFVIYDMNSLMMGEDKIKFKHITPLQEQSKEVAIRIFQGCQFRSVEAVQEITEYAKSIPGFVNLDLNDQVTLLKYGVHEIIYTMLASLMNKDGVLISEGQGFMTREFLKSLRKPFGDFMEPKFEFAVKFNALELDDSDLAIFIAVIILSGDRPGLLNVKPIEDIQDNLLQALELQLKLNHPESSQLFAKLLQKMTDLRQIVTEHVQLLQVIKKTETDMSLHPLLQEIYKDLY
Sequence of LXRα (Q13133 whole entry): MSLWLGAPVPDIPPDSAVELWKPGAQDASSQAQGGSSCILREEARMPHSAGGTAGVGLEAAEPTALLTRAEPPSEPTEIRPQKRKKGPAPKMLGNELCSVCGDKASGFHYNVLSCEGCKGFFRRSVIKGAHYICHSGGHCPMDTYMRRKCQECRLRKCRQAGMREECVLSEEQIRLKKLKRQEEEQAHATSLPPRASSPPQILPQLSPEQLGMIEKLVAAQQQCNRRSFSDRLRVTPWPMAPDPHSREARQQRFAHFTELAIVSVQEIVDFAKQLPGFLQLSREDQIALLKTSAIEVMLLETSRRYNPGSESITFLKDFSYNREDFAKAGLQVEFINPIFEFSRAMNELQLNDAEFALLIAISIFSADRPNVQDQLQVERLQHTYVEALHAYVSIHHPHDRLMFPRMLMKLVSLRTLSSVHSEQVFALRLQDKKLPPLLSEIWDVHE
T1 sequence (Q07869 whole entry, the tested form may be a part): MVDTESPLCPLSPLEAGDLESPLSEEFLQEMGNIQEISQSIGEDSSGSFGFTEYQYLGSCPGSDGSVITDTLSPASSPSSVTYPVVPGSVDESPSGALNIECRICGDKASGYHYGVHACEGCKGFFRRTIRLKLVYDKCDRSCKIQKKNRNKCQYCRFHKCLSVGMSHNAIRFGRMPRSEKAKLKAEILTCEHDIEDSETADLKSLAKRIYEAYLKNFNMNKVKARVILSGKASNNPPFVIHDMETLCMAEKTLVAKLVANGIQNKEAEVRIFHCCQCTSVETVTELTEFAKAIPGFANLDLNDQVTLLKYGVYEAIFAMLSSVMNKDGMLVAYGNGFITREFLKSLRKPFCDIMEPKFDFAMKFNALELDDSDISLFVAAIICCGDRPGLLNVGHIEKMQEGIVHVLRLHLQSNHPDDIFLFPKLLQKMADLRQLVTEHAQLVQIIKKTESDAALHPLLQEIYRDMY
Sequence of FXR (Q96RI1 whole entry, species assumed): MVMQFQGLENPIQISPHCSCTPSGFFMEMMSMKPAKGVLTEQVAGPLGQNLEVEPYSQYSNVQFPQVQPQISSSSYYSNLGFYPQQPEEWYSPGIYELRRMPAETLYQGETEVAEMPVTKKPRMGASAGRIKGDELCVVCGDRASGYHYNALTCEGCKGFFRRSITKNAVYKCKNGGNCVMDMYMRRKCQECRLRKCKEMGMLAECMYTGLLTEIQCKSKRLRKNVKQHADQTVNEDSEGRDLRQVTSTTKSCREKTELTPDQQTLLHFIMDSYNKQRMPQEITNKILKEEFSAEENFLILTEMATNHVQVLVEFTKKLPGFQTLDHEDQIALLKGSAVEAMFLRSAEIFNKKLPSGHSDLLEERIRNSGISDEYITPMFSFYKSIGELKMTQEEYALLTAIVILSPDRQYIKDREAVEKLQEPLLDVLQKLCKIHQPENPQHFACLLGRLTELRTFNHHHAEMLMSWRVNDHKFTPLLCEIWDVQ
Sequence of LXRβ (P55055 whole entry): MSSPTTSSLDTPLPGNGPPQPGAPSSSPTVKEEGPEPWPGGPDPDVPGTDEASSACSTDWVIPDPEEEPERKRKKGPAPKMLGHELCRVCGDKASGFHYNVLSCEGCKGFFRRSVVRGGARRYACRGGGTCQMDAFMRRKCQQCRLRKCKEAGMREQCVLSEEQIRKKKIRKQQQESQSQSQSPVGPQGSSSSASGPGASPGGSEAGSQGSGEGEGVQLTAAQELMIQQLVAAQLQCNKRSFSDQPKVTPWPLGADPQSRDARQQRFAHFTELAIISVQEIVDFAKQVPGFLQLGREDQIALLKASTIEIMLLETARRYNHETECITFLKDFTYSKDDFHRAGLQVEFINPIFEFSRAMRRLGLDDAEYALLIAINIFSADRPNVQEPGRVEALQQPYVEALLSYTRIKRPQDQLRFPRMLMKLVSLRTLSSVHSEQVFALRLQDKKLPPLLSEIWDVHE

SMILES: Cc1cc(OC/C=C(/c2ccc(F)cc2)c2ccc(C#CCN3CCOCC3)cc2)ccc1OCC(=O)O [Compound I, (E)-2-(4-((3-(4-fluorophenyl)-3-(4-(3-morpholinoprop-1-yn-1-yl)phenyl)allyl)oxy)-2-methylphenoxy)acetic acid]
- agonist type [1]: partial agonist
- agonist type ([2]; PPARγ): partial agonist
- EC50 ([2]; human PPARγ): > 10 µM
- activity on nuclear receptor FXR [3]: did not show any
- activity on nuclear receptor LXRα [4]: did not show any
- activity on nuclear receptor LXRβ [5]: did not show any
- fatty acid oxidation [6]: dose-dependent increase
- expression patterns of PPARδ regulated genes (CPT1b, PGC-1α) [7]: altered the expression patterns
- VLCAD enzymatic activity [8]: increased
- Modified Fatigue Impact Scale scores ([9]; 100 mg once daily, 12 weeks): trends towards increases
- brief pain inventory (BPI) score ([9]; 100 mg once daily, 12 weeks): Decreases
- distance walked during a 12-minute walk test ([9]; 100 mg once daily, 12 weeks): able to increase the distance walked
- peak VO2 ([9]; 100 mg once daily, 12 weeks): trends towards increases
- brief pain inventory (BPI) score [9, 11]: decreased
- distance walked during a 12-minute walk test [9, 11]: Improvements
- tolerability ([9]; PMM patients): well tolerated
- expression of PPAR regulated target genes (ANGPTL4) and fatty acid metabolism genes (PDK4) in muscle biopsies [10]: significant increases
- mean knee extension strength from baseline vs placebo ([10]; Day 21): significant increase
